Assay results published in patent US10100077B2, “6-aryl-9-glycosylpurines and use thereof” (UNIVERZITA PALACKEHO V OLOMOUCI, priority 2014, dated 2018).

Experiments:
[1] = test system: Vaccinia virus and Herpes simplex virus; details: cited from earlier work
[2] = test system: Vaccinia virus, strain IHD; details: cited from earlier work
[3] = test system: human erythromleukemia (K562); test: Calcein AM cytotoxicity assay, K562; format: cell-based; details: 72 hrs
Description: (§1) One of the parameters used as the base for cytotoxic analysis is metabolic activity of viable cells, such as microtiter assay, which uses the Calcein AM, is now widely used to quantitate cell proliferation and cytotoxicity. The quantity of reduced Calcein AM corresponds to the number of viable cells in culture. The cell lines of breast cancer (MCF-7), mousse fibroblasts (NIH3T3), human erythromleukemia (K562) were used for routine screening of cytotoxicity of the compounds. The cells were maintened in Nunc/Corning 80 cm^2 plastic bottles and grown in media for cell culture (DMEM containing 5 g/l of glucose, 2 mM of glutamin, 100 U/ml of penicilin, […] of streptomycin, 10% of fetal bovine serum and sodium hydrogencarbonate). Cell suspensions were diluted according to cell types and according to expected final cell density (10^4 of cells per well according to characteristics of cell growth), pipetted 80 μl of cell suspension on 96-well microtiter plates. Innoculates were stabilized by 24 hrs preincubation at 37° C. in CO2. Particular concentrations of tested compounds were added in time zero as 20 μl aliquotto wells of microtiter plates. Usually, the compounds were diluted into six concentrations in four-fold dilution series. In routine testing, the highest well concentration was 166.7 μM, of change dependent on the substance. All drug concentrations were examined in duplicates. The incubation of cells with tested derivatives lasted 72 hrs at 37° C., 100% humidity and in the atmosphere of CO2. At the end of the incubation period, the cells were tested and analysed according to the addition of Calcein AM (Molecular probes) solution and the incubation lasted for next 1 hour. Fluorescence (FD) was measured using Labsystem FIA reader Fluorskan Ascent (Microsystems). The survival of tumor cells (The tumor cell survival-TCS) was counted according to equation: […]=(FDwell with derivative/FDcontrol well)×100%. The value of GI50, that is equal to the concentration of compound at which 50% of tumour cells are terminated. To evaluate the antitumor activity was tested toxicity of new derivatives on panel of cell lines of different histogenetic and species origin (Tab. 7, G150 concentration given in μM). […] Effective derivatives killed tumor cells in concentrations close to 0.1 to 50. None of the newly prepared compounds only reached the value.

[4] = test system: mousse fibroblasts (NIH3T3); test: Calcein AM cytotoxicity assay, NIH3T3; format: cell-based, mouse; details: 72 hrs
Description: as §1

breast cancer (MCF-7) = test: Calcein AM cytotoxicity assay, MCF-7; format: cell-based; details: 72 hrs
Description: as §1

[5] = Calcein AM cytotoxicity assay, K562; format: cell-based, human; details: human, K562 erythroleukemia cells
Description: as §1

[6] = Calcein AM cytotoxicity assay, NIH3T3; format: cell-based, mouse; details: mouse, NIH3T3 fibroblasts
Description: as §1

[7] = test system: skin fibroblasts BJ and keratinocytes HaCaT; test: SRB in vitro toxicity test; format: cell-based; details: Homo sapiens, 72 hour treatment, maximal concentration 50 microM
Experimental: SRB (sulforhodamine B) assay is a standard toxicity test based on a photometric measurement of the cellular protein content after the staining with sulphorhodamine B. Using the assay, the effects of 72 hour treatments with several concentrations of the compounds (sixfold dilution, maximal concentration=50 microM) on viability of skin fibroblasts BJ and keratinocytes HaCaT were evaluated. About 5,000 cells were seeded per well of a 96-well plate 24 hours before the treatment. DMSO vehiculum was used as a negative non-toxic control. 6-benzylaminopurine riboside a 6-furfurylaminopurin riboside were used as positive toxic controls. After three days the medium was removed and the cells fixed with 10% (wt/vol) trichloroacetic acid. After the extensive washing in distilled water, 0.4% (wt/vol) solution of SRB in acetic acid was added and the fixed cells were stained for 30 minutes. The unbound stain was washed away by distilled water and the bound SRB was solubilized in unbuffered 10 mM Tris base. Absorbance was measured at 564 nm. IC50 values were calculated from dose-response curves.

[8] = Calcein AM cytotoxicity assay, MCF-7; format: cell-based; details: human, MCF-7 breast cancer cells
Description: as §1

[9] = test system: detached leaf segments of Triticum aestivum cv. Hereward; test: Senescence bioassay on wheat leaf segments (chlorophyll retention); details: for activity (%) [10^−4 mol · l^−1 BAP = 100%]: chlorophyll retention at maximum effective concentration, 96 h dark
Experimental: Seeds of winter wheat, Triticum aestivum cv. Hereward, were washed under running water for 24 hours and then sown on vermiculite soaked with Knop's solution. They were placed in the growth chamber at 25° C. with a 16/8 h light period at 50 μmol·m^−2·s^−1. After 7 days, the first leaf was fully developed and the second leaf had started to grow. A tip section of the first leaf, approximately 35 mm long, was removed from 5 seedlings and trimmed slightly to a combined weight of 100 mg. The basal ends of the five leaf tips were placed in the wells of a microtiter polystyrene plate containing 150 μL, of the tested derivative solution each. The entire plate was inserted into a plastic box lined with paper tissues soaked in distilled water to prevent leaf sections from drying out. After 96 h incubation in the dark at 25° C., the leaves were removed and chlorophyll extracted by heating at 80° C. for 10 min in 5 mL of 80% ethanol (v/v). The sample volume was then restored to 5 mL by the addition of 80% ethanol (v/v). The absorbance of the extract was recorded at 665 nm. In addition, chlorophyll extracts from fresh leaves and leaf tips incubated in deionised water were measured. The results are means of five replicates and the entire test was repeated twice. […] The compounds to be tested were dissolved in dimethylsulfoxide (DMSO) and the solution brought up to 10^−3M with distilled water. This stock solution was further diluted with the respective media used for the biotest to a concentration ranging from 10^−8M to 10^−4M. […] The activity obtained for 10^−4 M of BAP was postulated as 100%.

[10] = test system: skin fibroblasts BJ and keratinocytes HaCaT; test: MTT in vitro cytotoxicity test for skin cells; format: cell-based; details: for IC50: Homo sapiens, MTT, 72 hour treatment, BJ and HaCaT, maximal concentration 50 microM
Experimental: MTT assay is a standard test of toxicity based on photometric measurement of the ability of metabolically active cells to reduce MTT (3-(4,5-dimethylthiazol-2-yl)-2,5-diphenyltetrazolium bromide). Using the assay, the effects of 72 hour treatments with several concentrations of the compounds (sixfold dilution, maximal concentration=50 microM) on viability of skin fibroblasts BJ and keratinocytes HaCaT were evaluated. About 5,000 cells were seeded per well of a 96-well plate 24 hours before the treatment. DMSO vehiculum was used as a negative control. After 72 hour treatment, new medium with MTT (Sigma, M2128) was added to a final concentration of 0.5 mg/ml. After 3 hours, medium was removed and resulting formazan in the cells was dissolved in DMSO. The absorbance was measured at 570 nm (640 nm reference wavelength). The IC50 values were calculated from the dose-response curves. 6-Benzylaminopurine riboside and 6-furfurylaminopurine riboside were used as positive controls they were toxic in the MTT test.

[11] = test system: EpiDERM 3D model of epidermis; test: In vitro test of skin irritation in EpiDERM; format: cell-based
Experimental: EpiDERM™ is a 3D model of epidermis manufactured by Mattek company. The effects of tested substances are evaluated by MTT. 2 solutions (2 application forms) of the compounds 6-furfurylamino-9-β-D-arabinofuranosylpurine and 6-(3-methoxybenzylamino)-9-β-D-arabinofuranosylpurine in concentrations 1 mM a 200 microM in 0.5% DMSO/99.5% PBS were evaluated according to a standard protocol “INVITRO EpiDerm™ SKIN IRRITATION TEST”. After a preincubation of the tissues, 30 microliters of the application form solution were applied on the individual tissues. The exposition time was 60 minutes. Three tissues were used for each tested concentration as well as for controls. Following washing out of the applied solution, the tissues were incubated for 42 hour in order to allow a reparation of possible damage. In the next step, the tissue was incubated with MTT for 3 hours. The resulting formazan was extracted to isopropanol. Relative viability of the individual tissues was calculated as a percentage of viability of the average of the negative controls. Average viability of the tissues treated with 1 mM solution of the test substance was 99.3% for the compound 6-(3-methoxybenzylamino)-9-β-D-arabinofuranosylpurine and 98.0% for the compound 6-(furfurylamino)-9-β-D-arabinofuranosylpurine where 100% is an average viability of the tissues treated with the solvent only. None of the tested compounds in any of the concentrations caused any tissue damage or irritation. The compounds were evaluated as non-irritant in the tested concentrations.

## Cc1cccc(CNc2ncnc3c2ncn3C2OC(CO)C(O)C2O)c1C (centres unmarked) [2,3-dimethylbenzyl]
[1]
  activity in killing Vaccinia virus and Herpes simplex virus: No effect

## Cc1ccc(CNc2ncnc3c2ncn3C2OC(CO)C(O)C2O)c(C)c1 (centres unmarked) [2,4-dimethylbenzyl]
[2]
  activity against Vaccinia virus, strain IHD: low activity

## Cc1ccc(C)c(CNc2ncnc3c2ncn3C2OC(CO)C(O)C2O)c1 (centres unmarked) [2,5-dimethylbenzyl]
[2]
  activity against Vaccinia virus, strain IHD: low activity

## Cc1cccc(C)c1CNc1ncnc2c1ncn2[C@@H]1O[C@H](CO)[C@@H](O)[C@@H]1O [2,6-dimethylbenzyl]
[1]
  activity in killing Vaccinia virus and Herpes simplex virus: No effect

## Cc1ccccc1CNc1ncnc2c1ncn2[C@@H]1O[C@H](CO)[C@@H](O)[C@@H]1O [2-methylbenzylamino-9-β-D-arabinofuranosylpurine]
[3]
  GI50: > 100 µM
[4]
  GI50: > 100 µM
Breast cancer (MCF-7)
  GI50: > 100 µM
[1]
  activity in killing Vaccinia virus and Herpes simplex virus: No effect

## Cc1ccc(CNc2ncnc3c2ncn3[C@@H]2O[C@H](CO)[C@@H](O)[C@@H]2O)cc1C [3,4-dimethylbenzyl]
[1]
  activity in killing Vaccinia virus and Herpes simplex virus: No effect

## Cc1cccc(CNc2ncnc3c2ncn3[C@@H]2O[C@H](CO)[C@@H](O)[C@@H]2O)c1 [3-methylbenzylamino-9-β-D-arabinofuranosylpurine]
[3]
  GI50: > 100 µM
[4]
  GI50: > 100 µM
Breast cancer (MCF-7)
  GI50: > 100 µM
[1]
  activity in killing Vaccinia virus and Herpes simplex virus: No effect

## OC[C@H]1O[C@@H](n2cnc3c(NCc4ccc(Cl)cc4)ncnc32)[C@@H](O)[C@@H]1O [4-chlorobenzylamino-9-β-D-arabinofuranosylpurine]
[3]
  GI50: > 100 µM
[4]
  GI50: > 100 µM
Breast cancer (MCF-7)
  GI50: > 100 µM

## OC[C@H]1O[C@@H](n2cnc3c(NCc4ccc(O)cc4)ncnc32)[C@@H](O)[C@@H]1O [4-hydroxybenzylamino-9-β-D-arabinofuranosylpurine]
[3]
  GI50: > 100 µM
[4]
  GI50: 87 µM
Breast cancer (MCF-7)
  GI50: > 100 µM

## Cc1ccc(CNc2ncnc3c2ncn3[C@@H]2O[C@H](CO)[C@@H](O)[C@@H]2O)cc1 [4-methylbenzylamino-9-β-D-arabinofuranosylpurine]
[3]
  GI50: > 100 µM
[4]
  GI50: > 100 µM
Breast cancer (MCF-7)
  GI50: 95 µM

## OC[C@H]1O[C@@H](n2cnc3c(NCc4cccc(Cl)c4)ncnc32)[C@@H](O)[C@@H]1O [6-(3-chlorobenzylamino)-9-β-D-arabinofuranosylpurine]
[5]
  GI50 at 72 h: > 100 µM
[6]
  GI50 at 72 h: > 100 µM
[7]
  IC50: 48 µM
[8]
  GI50 at 72 h: > 100 µM
[9]
  activity (%) [10^−4 mol · l^−1 BAP = 100%]: 172 ± 8%
[10]
  IC50: > 50 µM

## OC[C@H]1O[C@@H](n2cnc3c(NCc4cccc(F)c4)ncnc32)[C@@H](O)[C@@H]1O [6-(3-fluorobenzylamino)-9-β-D-arabinofuranosylpurine]
[5]
  GI50 at 72 h: > 100 µM
[6]
  GI50 at 72 h: > 100 µM
[8]
  GI50 at 72 h: > 100 µM
[9]
  activity (%) [10^−4 mol · l^−1 BAP = 100%]: 195 ± 6%

## OC[C@H]1O[C@@H](n2cnc3c(NCc4ccccc4)ncnc32)C[C@@H]1O [6-benzylamino-9-β-D-deoxyribosylpurine]
[3]
  GI50: > 100 µM
[4]
  GI50: > 100 µM
Breast cancer (MCF-7)
  GI50: > 100 µM
[9]; 96 h in the dark at 25° C.
  maximum effective concentration: 10^−4 mol · l^−1
[9]
  activity (%) [10^−4 mol · l^−1 BAP = 100%]: 178 ± 9%

## OC[C@H]1OC(n2cnc3c(NCc4ccccc4)ncnc32)[C@H](O)[C@@H]1O (some centres unmarked) [6-benzylaminopurin9-ribosylpurine, 6-benzylamino-9-ribosylpurine, reference compound]
[5]
  GI50 at 72 h: 5.5 µM
[6]
  GI50 at 72 h: 39 µM
[8]
  GI50 at 72 h: 5.4 µM
[10]
  IC50: ≤ 3 µM
[10]; positive controls
  toxicity in the MTT test: toxic

## OC[C@H]1O[C@@H](n2cnc3c(NCc4ccco4)ncnc32)[C@@H](O)[C@@H]1O [6-furfurylamino-9-β-D-arabinofuranosylpurine]
[5]
  GI50 at 72 h: > 100 µM
[6]
  GI50 at 72 h: > 100 µM
[7]
  IC50: > 50 µM
[11]; 1 mM and 200 microM in 0.5% DMSO/99.5% PBS
  skin irritation evaluation: non-irritant
[11]; 1 mM solution, 60 minutes exposition, 100% = solvent only
  Average viability of the tissues: 98.0%
[8]
  GI50 at 72 h: > 100 µM
[9]
  activity (%) [10^−4 mol · l^−1 BAP = 100%]: 193 ± 1%
[10]
  IC50: > 50 µM
